In patent US20250332173A1, “COMPOUNDS AND METHODS FOR MODULATING NUCLEIC ACID SPLICING” (REMIX THERAPEUTICS INC., priority 2021, published 2025) one finds IC50 data, which are given here for eleven molecules.

Each structure is given as a SMILES string.

One test relates to Target C. The test is described as follows: RT-qPCR splicing assay panel, Target C canonical junction (CJ) mRNA. The format is cell-based, human. The conditions noted are these: Homo sapiens; Table 5 panel; canonical junction qPCR; compound concentration having 50% response in CJ decrease; read-out: Target C IC50 (decrease in CJ mRNA levels). The procedure, abridged: (§1)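 Cells are plated (A673 allowed 24 h to adhere), dosed with an 11-point 3-fold series topping at 10 uM final, and incubated 24 h at 37 °C. Lysis is followed by cDNA synthesis and qPCR of the CJ transcript, normalized to a housekeeping gene.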
In general terms: In qPCR the cycle at which signal appears reflects the starting amount.

The test system of the next test is SMN2 mRNA. The test is described as follows: RT-qPCR splicing assay, SMN2 canonical junction (CJ) mRNA. The format is cell-based, human. The following applies: Homo sapiens; Table 5 panel; canonical junction qPCR; compound concentration having 50% response in CJ decrease; read-out: SMN2 IC50 (decrease in CJ mRNA levels). The method in brief:
as §1

One may read the IC50 as the concentration that inhibits the measured activity by half. With `Cc1cn2nc(-c3cc4ccn(C5CCNCC5)c(=O)c4cc3O)cc(C)c2n1` [Compound 448, 6-{2,8-dimethylimidazo[1,2-b]pyridazin-6-yl}-7-hydroxy-2-(piperidin-4-yl)isoquinolin-1-one], the IC50 in the test with Target C and with SMN2 mRNA was less than 0.1 µM in each case.
For `COc1cc2c(=O)n(C3CCNCC3)ccc2cc1-c1cc(C)c2nc(C)cn2n1` [Compound 449, 6-{2,8-dimethylimidazo[1,2-b]pyridazin-6-yl}-7-methoxy-2-(piperidin-4-yl)isoquinolin-1-one], the IC50 in the test with Target C and with SMN2 mRNA was greater than 10 µM each time.
For the molecule `Cc1cn2cc(-c3ccc4c(=O)n([C@@H]5CCNC5)cc(C)c4c3)cc(F)c2n1` [Compound 452, (R)-6-(8-fluoro-2-methylimidazo[1,2-a]pyridin-6-yl)-4-methyl-2-(pyrrolidin-3-yl)isoquinolin-1(2H)-one], the values for the 50% inhibitory concentration (IC50) with Target C and with SMN2 mRNA were greater than 10 µM and less than 0.1 µM, respectively.
Regarding `Cc1cn2c(n1)CCC(c1ccc3c(=O)n(C4CCNCC4)ccc3c1)C2` (stereo not shown) [Compound 453, 6-{2-methyl-5H,6H,7H,8H-imidazo[1,2-a]pyridin-6-yl}-2-(piperidin-4-yl)isoquinolin-1-one], the IC50 with Target C and in the test with SMN2 mRNA was greater than 10 µM each time.
Turning to `Cc1cn2cc(-n3ccc4cc(N5C[C@@H](C)N[C@@H](C)C5)ccc4c3=O)nc(C)c2n1` [Compound 454, 2-{2,8-dimethylimidazo[1,2-a]pyrazin-6-yl}-6-[(3R,5S)-3,5-dimethylpiperazin-1-yl]isoquinolin-1-one], the IC50 in the test with Target C is greater than 10 µM; with SMN2 mRNA, 1 to 10 µM.
Regarding `Cc1cn2cc(-c3ccc4c(=O)n([C@H]5CCNC5)cc(C)c4c3)cc(C#N)c2n1` [Compound 456, (S)-2-methyl-6-(4-methyl-1-oxo-2-(pyrrolidin-3-yl)-1,2-dihydroisoquinolin-6-yl)imidazo[1,2-a]pyridine-8-carbonitrile], the values for the IC50 in the test with Target C and with SMN2 mRNA were greater than 10 µM and 1 to 10 µM, respectively.
In the case of `Cc1cn2cc(-c3cc(F)c4c(=O)n(C5CCNCC5)cc(C)c4c3)cc(F)c2n1` [Compound 461, 8-fluoro-6-{8-fluoro-2-methylimidazo[1,2-a]pyridin-6-yl}-4-methyl-2-(piperidin-4-yl)isoquinolin-1-one], the IC50 in the test with Target C is 0.1 to 1 µM; with SMN2 mRNA, less than 0.1 µM.
The corresponding values for `Cc1cn2nc(-c3cc(O)c4c(=O)n(C5CCNC5)cc(C)c4c3)cc(C)c2n1` (stereo not shown) [Compound 462] are greater than 10 µM and 0.1 to 1 µM.
Turning to `Cn1cc2c(n1)CCN(c1ccc3c(=O)n(C4CCNCC4)ccc3c1)C2` [Compound 509, 6-{2-methyl-4H,6H,7H-pyrazolo[4,3-c]pyridin-5-yl}-2-(piperidin-4-yl)isoquinolin-1-one], the concentration for half-maximal inhibition (IC50) in the test with Target C is greater than 10 µM; with SMN2 mRNA it was 1 to 10 µM.
Turning to `Cc1cn2cc(-c3ccc4c(=O)n(C5CCNC6(CC6)C5)ncc4c3)cc(Cl)c2n1` (stereo not shown) [Compound 510], the IC50 is 1 to 10 µM in the test on Target C and less than 0.1 µM in the test on SMN2 mRNA.
`Cn1cc2nc(-c3ccc4c(=O)n(C5CCNC6(CC6)C5)ncc4c3)ccc2n1` (stereo not shown) [Compound 511]: the results for the IC50 with Target C and in the test with SMN2 mRNA were 1 to 10 µM and less than 0.1 µM, respectively.
